Reference: PubChem BioAssay (NCI)
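Dose response: 5 concentrations. Exposure: 48 h. Format: 96-well plates. Endpoint: linear interpolation; highest concentration if not reached. At the TGI there is no net growth.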

Tests used:
Assay in all cases: NCI anticancer screen, dose series, 48 h
SNB-75 CNS = system: SNB-75 CNS
A498 renal = system: A498 renal
MOLT-4 leukemia = system: MOLT-4 leukemia
DU-145 prostate = system: DU-145 prostate
EKVX NSCLC = system: EKVX NSCLC
RPMI-8226 leukemia = system: RPMI-8226 leukemia
NCI-H23 lung = system: NCI-H23 lung
RXF 393 renal = system: RXF 393 renal
SF-539 CNS = system: SF-539 CNS
CAKI-1 renal = system: CAKI-1 renal
COLO 205 colon = system: COLO 205 colon
SK-MEL-28 melanoma = system: SK-MEL-28 melanoma
UACC-62 melanoma = system: UACC-62 melanoma
MCF7 breast = system: MCF7 breast
UO-31 renal = system: UO-31 renal
HCT-116 colon = system: HCT-116 colon
HCC-2998 colon = system: HCC-2998 colon
OVCAR-4 ovarian = system: OVCAR-4 ovarian
UACC-257 melanoma = system: UACC-257 melanoma
KM12 colon = system: KM12 colon
786-0 renal = system: 786-0 renal
SK-MEL-2 melanoma = system: SK-MEL-2 melanoma
SR leukemia = system: SR leukemia
NCI/ADR-RES ovarian = system: NCI/ADR-RES ovarian
SK-OV-3 ovarian = system: SK-OV-3 ovarian
HOP-62 NSCLC = system: HOP-62 NSCLC
MDA-N = system: MDA-N
SK-MEL-5 melanoma = system: SK-MEL-5 melanoma
U251 CNS = system: U251 CNS
BT-549 breast = system: BT-549 breast
HT29 colon = system: HT29 colon
MDA-MB-435 = system: MDA-MB-435
OVCAR-8 ovarian = system: OVCAR-8 ovarian
TK-10 renal = system: TK-10 renal
OVCAR-3 ovarian = system: OVCAR-3 ovarian
MDA-MB-231 breast = system: MDA-MB-231 breast
NCI-H460 lung = system: NCI-H460 lung
IGROV1 ovarian = system: IGROV1 ovarian
OVCAR-5 ovarian = system: OVCAR-5 ovarian
SW-620 colon = system: SW-620 colon
HOP-92 NSCLC = system: HOP-92 NSCLC
M14 melanoma = system: M14 melanoma
SN12C renal = system: SN12C renal
MALME-3M melanoma = system: MALME-3M melanoma
A549 NSCLC = system: A549 NSCLC
NCI-H522 lung = system: NCI-H522 lung
SNB-19 CNS = system: SNB-19 CNS
SF-295 CNS = system: SF-295 CNS
PC-3 prostate = system: PC-3 prostate
ACHN renal = system: ACHN renal
SF-268 CNS = system: SF-268 CNS
HCT-15 colon = system: HCT-15 colon
K-562 leukemia = system: K-562 leukemia
NCI-H226 lung = system: NCI-H226 lung
T-47D breast = system: T-47D breast
CCRF-CEM leukemia = system: CCRF-CEM leukemia
LOX IMVI melanoma = system: LOX IMVI melanoma
HL-60(TB) leukemia = system: HL-60(TB) leukemia
HS 578T breast = system: HS 578T breast

## CCOC(=O)c1cccc(NC(=O)CI)c1
SNB-75 CNS
  TGI: 2.87 µM
A498 renal
  TGI: 4.72 µM
MOLT-4 leukemia
  TGI: 0.221 µM
DU-145 prostate
  TGI: 3.34 µM
EKVX NSCLC
  TGI: 3.94 µM
RPMI-8226 leukemia
  TGI: 3.28 µM
NCI-H23 lung
  TGI: 0.521 µM
RXF 393 renal
  TGI: 2.74 µM
SF-539 CNS
  TGI: 1.31 µM
CAKI-1 renal
  TGI: 1.07 µM
COLO 205 colon
  TGI: 1.86 µM
SK-MEL-28 melanoma
  TGI: 5.86 µM
UACC-62 melanoma
  TGI: 1.87 µM
MCF7 breast
  TGI: 1.33 µM
UO-31 renal
  TGI: 0.43 µM
HCT-116 colon
  TGI: 0.946 µM
HCC-2998 colon
  TGI: 4.34 µM
OVCAR-4 ovarian
  TGI: 3.02 µM
UACC-257 melanoma
  TGI: 2.95 µM
KM12 colon
  TGI: 3.66 µM
786-0 renal
  TGI: 0.307 µM
SK-MEL-2 melanoma
  TGI: 2.4 µM
SR leukemia
  TGI: 0.0918 µM
NCI/ADR-RES ovarian
  TGI: 1.96 µM
SK-OV-3 ovarian
  TGI: 2.26 µM
HOP-62 NSCLC
  TGI: 2.44 µM
MDA-N
  TGI: 0.472 µM
SK-MEL-5 melanoma
  TGI: 1.22 µM
U251 CNS
  TGI: 1.35 µM
BT-549 breast
  TGI: 1.48 µM
HT29 colon
  TGI: 0.646 µM
MDA-MB-435
  TGI: 0.797 µM
OVCAR-8 ovarian
  TGI: 0.687 µM
TK-10 renal
  TGI: 2.19 µM
OVCAR-3 ovarian
  TGI: 0.759 µM
MDA-MB-231 breast
  TGI: 2.91 µM
NCI-H460 lung
  TGI: 3.77 µM
IGROV1 ovarian
  TGI: 1.02 µM
OVCAR-5 ovarian
  TGI: 3.07 µM
SW-620 colon
  TGI: 1.64 µM
HOP-92 NSCLC
  TGI: 3.57 µM
M14 melanoma
  TGI: 0.664 µM
SN12C renal
  TGI: 0.731 µM
MALME-3M melanoma
  TGI: 2.98 µM
A549 NSCLC
  TGI: 3.41 µM
NCI-H522 lung
  TGI: 0.347 µM
SNB-19 CNS
  TGI: 9.39 µM
SF-295 CNS
  TGI: 5.69 µM
PC-3 prostate
  TGI: 2.39 µM
ACHN renal
  TGI: 1.99 µM

## COc1cccc(C2c3cc4c(cc3OC(Nc3ccccc3)C2C)OCO4)c1OC (configuration not stated)
SNB-75 CNS
  TGI: > 100 µM
SF-268 CNS
  TGI: > 100 µM
A498 renal
  TGI: > 100 µM
MOLT-4 leukemia
  TGI: 17.9 µM
DU-145 prostate
  TGI: > 100 µM
HCT-15 colon
  TGI: > 100 µM
K-562 leukemia
  TGI: > 100 µM
EKVX NSCLC
  TGI: > 100 µM
RPMI-8226 leukemia
  TGI: 17.8 µM
NCI-H23 lung
  TGI: > 100 µM
RXF 393 renal
  TGI: > 100 µM
SF-539 CNS
  TGI: > 100 µM
CAKI-1 renal
  TGI: > 100 µM
COLO 205 colon
  TGI: 19.7 µM
SK-MEL-28 melanoma
  TGI: > 100 µM
NCI-H226 lung
  TGI: 12.1 µM
UACC-62 melanoma
  TGI: > 100 µM
MCF7 breast
  TGI: > 100 µM
UO-31 renal
  TGI: > 100 µM
HCT-116 colon
  TGI: > 100 µM
HCC-2998 colon
  TGI: > 100 µM
UACC-257 melanoma
  TGI: 97.3 µM
KM12 colon
  TGI: > 100 µM
786-0 renal
  TGI: 22.9 µM
SK-MEL-2 melanoma
  TGI: > 100 µM
SR leukemia
  TGI: 11.2 µM
SK-OV-3 ovarian
  TGI: > 100 µM
HOP-62 NSCLC
  TGI: > 100 µM
MDA-N
  TGI: > 100 µM
SK-MEL-5 melanoma
  TGI: > 100 µM
U251 CNS
  TGI: > 100 µM
BT-549 breast
  TGI: > 100 µM
HT29 colon
  TGI: > 100 µM
MDA-MB-435
  TGI: > 100 µM
OVCAR-8 ovarian
  TGI: 33.1 µM
T-47D breast
  TGI: > 100 µM
TK-10 renal
  TGI: > 100 µM
CCRF-CEM leukemia
  TGI: 27.6 µM
OVCAR-3 ovarian
  TGI: > 100 µM
MDA-MB-231 breast
  TGI: > 100 µM
NCI-H460 lung
  TGI: > 100 µM
IGROV1 ovarian
  TGI: > 100 µM
OVCAR-5 ovarian
  TGI: > 100 µM
SW-620 colon
  TGI: > 100 µM
HOP-92 NSCLC
  TGI: 60.1 µM
M14 melanoma
  TGI: > 100 µM
SN12C renal
  TGI: > 100 µM
MALME-3M melanoma
  TGI: > 100 µM
A549 NSCLC
  TGI: > 100 µM
LOX IMVI melanoma
  TGI: > 100 µM
NCI-H522 lung
  TGI: 95 µM
HL-60(TB) leukemia
  TGI: 6.26 µM
SNB-19 CNS
  TGI: > 100 µM
SF-295 CNS
  TGI: > 100 µM
HS 578T breast
  TGI: 61.4 µM
PC-3 prostate
  TGI: > 100 µM
ACHN renal
  TGI: > 100 µM
